Test results: US9315544B2, “Method of treating eosinophilia by administering an immunomodulating peptide” (National Tsing Hua University, priority 2012, dated 2016)

Experiments:
[1] = system: inflammatory cell recruitment into the airways; experiment: Differential cell counts in bronchoalveolar lavage fluid (BALF); type: in vivo, BALB/c mouse
Text: FIG. 4 illustrates experimental design. All groups except control group were immunized with mite crude extract allergen on days 1 and 8, then mite crude extract allergen intratracheally on day 15 in all mite treated group, BALB/c mouse were divided into six groups (1) control group (PBS), (2) mites delivered intratracheally (mIT, mite on day 15) alone, (3) CMP intranasal (eIN, CMP on days 1 to 22) alone, (4) preventive-treatment group (eIN+mIT, CMP on days 1 to 14, mite on day 15) (5) therapy-treatment group (mIT+eIN, mite on day 15, CMP on days 15 to 22), and (6) preventive- and therapeutic-treatment group (eIN+mIT+eIN, CMP on days 1 to 22, mite on day 15).
FIG. 7 illustrates inhibitory effect of CMP on cell response in bronchoalveolar lavage fluid (BALF). BALF were collected from all experimental groups of mice. Cell populations were identified on air-dried cytocentrifuged smears after staining with Diff-Quuick stain. Differential cell counts were performed on a minimum of 300 cells to identify macrophages, eosinophils, segment or lymphocytes. Data represent one of three independent experiments. Each result was expressed as the mean±S.D., n=4. ***, P<0.001.
Mice were divided into six groups: 1) control (n=10), 2) mite crude extract allergen delivered intratracheally (mIT) alone (n=10), 3) CMP intranasal (eIN) alone (n=12), 4) preventive-treatment group (eIN+mIT; n=12), 5) therapeutic-treatment group (mIT+eIN; n=12), and 6) preventive- and therapeutic-treatment group (eIN+mIT+eIN; n=18) (FIG. 4). All groups receiving mIT were immunized with mite crude extract allergen on days 1 and 8 and then given mite crude extract allergen intratracheally on day 15. The cIN and eIN+mIT+eIN groups received cIN from days 1 to 22, the cIN+mIT group received eIN from days 1 to 15 (before mIT), and the mIT+eIN group received eIN from days 15 (post-mIT) to 22. All mice were sacrificed on day 23. The animal use protocol was reviewed and approved by Institutional Animal Care and Use Committee (IACUC Approval No: La-95279).
The trachea was exposed and cannulated. Two washings, each consisting of 1.0 ml of phosphate-buffered saline, were introduced into the lungs via the cannula and withdrawn to collect the cells. Bronchoalveolar lavage fluid (BALF) from each wash was placed in polypropylene tubes on ice. The collected BALF was then centrifuged at 300×g for 7 min at 4° C. […] Total cell numbers were counted on a hemocytometer, and 1−5×10^3 cells were spun onto glass microscope slides (cytospin, Shandon Scientific, Cheshire, UK). […] The number of cells recovered was calculated and expressed as absolute cell numbers.
To identify the extent of inflammatory cell recruitment into the airways under allergen challenge circumstance, the amount of inflammatory cell were measured in BALF. […]

[2] = system: human lung cancer H460; experiment: Transwell migration assay, H460; type: cell-based; conditions: 12.5 μM CMP pretreatment 30 min, 18 hours
Protocol: FIG. 10 illustrates Tumor migration inhibition by CMP. A549, H460 and mouse colon cancer cells were incubated with CMP at 37° C. for 30 min before adding to the top chamber of transwell membranes in 24-well dishes at a density of 2×10^4 cells/well. Data represented the mean±S.E. of triplicate samples from a representative experiment. The experiment was repeated at least three times with similar results
Cancer cell inhibition by CMP was performed in a 24-well Transwell chamber consisting of a cell culture insert (6.4 mm diameter, 8-1 μm pore polyethylene tetraphtalate membrane, [Becton Dickinson]) set in each well of a 24-well companion plate (Becton Dickinson). Briefly, 3×10^4 cancer cells were suspended and pretreated with 5 and 12.5 μM CMP for 30 min in a total volume of 200 μL. Cell suspensions were inoculated into the upper chamber of an insert, 5% fetal bovine serum (FBS) in medium as a chemoattractant was added to the plate well in the bottom chamber, and incubated for 18 hours in a humidified incubator at 37° C. with 5% CO2. The non-migratory cells on the upper membrane surface were removed with a cotton swab, and the migratory cells attached to the lower membrane surface were fixed with 4% paraformaldehyde and stained with 0.2% crystal violet. The number of migrated cells was counted in four randomly selected high power fields under microscope. […]

NYRWRCKNQN (CMP)
eosinophil count in BALF compared with mIT group ([1]; eIN+mIT group): lower | eosinophil count in BALF compared with mIT group ([1]; eIN+mIT+eIN group): lower | lymphocyte count in BALF compared with mIT group ([1]; eIN+mIT+eIN group): lower | macrophage count in BALF compared with mIT group ([1]; eIN+mIT+eIN group): lower | decrease of migration activity [2]: 50%
